Data taken from ChEMBL document CHEMBL5518207, “Structure Guided Discovery of Novel Pan Metallo-β-Lactamase Inhibitors with Improved Gram-Negative Bacterial Cell Penetration” (J Med Chem, 2024).

Columns and labels:
[1] = Inhibition of GST tagged IMP-1 (unknown origin) expressed in Escherichia coli BL21 Star (DE3) competent cells using CCF2-FA as substrate incubated for 2 hrs by fluorescence based analysis
[2] = tested on: Escherichia coli; experiment: Potentiation of imipenem induced antibacterial activity against Escherichia coli CLB30005 harbouring NDM-1 incubated for 18 to 22 hrs in presence of imipenem by spectrophotometer based analysis; type: functional; details: time 18-22 hrs
[3] = Inhibition of GST tagged VIM-1 (unknown origin) expressed in Escherichia coli BL21 Star (DE3) competent cells using CCF2-FA as substrate incubated for 2 hrs by fluorescence based analysis
[4] = tested on: Pseudomonas aeruginosa; experiment: Potentiation of imipenem induced antibacterial activity against isogenic efflux deleted mutant Pseudomonas aeruginosa MB9799 harbouring IMP incubated for 18 to 22 hrs imipenem and beta lactamase inhibitor by spectrophotometer based analysis; type: functional; details: time 18-22 hrs
[5] = tested on: Klebsiella pneumoniae; experiment: Potentiation of imipenem induced antibacterial activity against Klebsiella pneumoniae IHMA599644 harbouring VIM-1 incubated for 18 to 22 hrs imipenem by spectrophotometer based analysis; type: functional; details: time 18-22 hrs
[6] = tested on: Pseudomonas aeruginosa; experiment: Efflux ratio of MITC95 for potentiation of imipenem induced antibacterial activity against isogenic efflux wild type Pseudomonas aeruginosa MB9798 harbouring IMP to MITC95 for potentiation of imipenem induced antibacterial activity against isogenic efflux deleted mutant Pseudomonas aeruginosa MB9799 harbouring IMP; type: functional
[7] = tested on: Serratia marcescens; experiment: Potentiation of imipenem induced antibacterial activity against Serratia marcescens CL5741 harbouring IMP-1 incubated for 18 to 22 hrs imipenem by spectrophotometer based analysis; type: functional; details: time 18-22 hrs
[8] = Inhibition of GST tagged NDM-1 (unknown origin) expressed in Escherichia coli BL21 Star (DE3) competent cells using CCF2-FA as substrate incubated for 2 hrs by fluorescence based analysis
[9] = tested on: Pseudomonas aeruginosa; experiment: Potentiation of imipenem induced antibacterial activity against isogenic efflux wild type Pseudomonas aeruginosa MB9798 harbouring IMP incubated for 18 to 22 hrs imipenem and beta lactamase inhibitor by spectrophotometer based analysis; type: functional; details: time 18-22 hrs
[10] = Inhibition of GST tagged VIM-2 (unknown origin) expressed in Escherichia coli BL21 Star (DE3) competent cells using CCF2-FA as substrate incubated for 2 hrs by fluorescence based analysis
[11] = Volume of distribution at steady state in rat at 1 mg/kg, iv measured after 24 hrs by HPLC-MS analysis; type: ADME, organism-based; details: in vivo, read-out: Vdss
[12] = Cmax in Beagle dog at 1 mg/kg, iv measured after 24 hrs by HPLC-MS analysis; type: ADME, organism-based, Canis lupus familiaris; details: in vivo
[13] = biological target: Voltage-gated inwardly rectifying potassium channel KCNH2 (Homo sapiens, UniProt Q12809); experiment: Inhibition of human ERG; type: toxicity
[14] = biological target: T1, Cytochrome P450 2C8 (Homo sapiens, UniProt P10632); experiment: Inhibition of CYP2C8 (unknown origin); type: ADME
T1 sequence (P10632 whole entry): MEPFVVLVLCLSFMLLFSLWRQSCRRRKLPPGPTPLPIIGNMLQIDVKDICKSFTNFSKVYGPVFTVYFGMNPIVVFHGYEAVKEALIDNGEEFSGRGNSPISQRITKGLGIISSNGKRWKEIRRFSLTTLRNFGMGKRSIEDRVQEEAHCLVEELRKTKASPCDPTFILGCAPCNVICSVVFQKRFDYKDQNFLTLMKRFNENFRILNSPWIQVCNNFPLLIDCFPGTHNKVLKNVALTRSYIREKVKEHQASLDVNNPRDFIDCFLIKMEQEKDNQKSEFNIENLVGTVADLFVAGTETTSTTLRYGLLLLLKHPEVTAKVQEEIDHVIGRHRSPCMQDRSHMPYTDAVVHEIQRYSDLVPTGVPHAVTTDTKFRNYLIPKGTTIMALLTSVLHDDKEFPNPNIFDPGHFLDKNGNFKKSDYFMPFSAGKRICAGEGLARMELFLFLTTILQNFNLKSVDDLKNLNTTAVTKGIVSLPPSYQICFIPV

[15] = Toxicity in Beagle dog assessed as severe adverse effect at 1 mg/kg, iv measured after 24 hrs by HPLC-MS analysis; type: organism-based, Canis lupus familiaris; details: in vivo
[16] = biological target: Voltage-dependent L-type calcium channel subunit alpha-1C (Homo sapiens, UniProt Q13936); experiment: Inhibition of Cav1.2 channel (unknown origin)
[17] = biological target: Sodium channel protein type 5 subunit alpha (Homo sapiens, UniProt Q14524); experiment: Inhibition of NaV 1.5 channel (unknown origin)
[18] = Clearance in rat at 1 mg/kg, iv measured after 24 hrs by HPLC-MS analysis; type: ADME, organism-based; details: in vivo
[19] = biological target: Cytochrome P450 3A4 (Homo sapiens, UniProt P08684); experiment: Inhibition of CYP3A4 (unknown origin); type: ADME
[20] = Cmax in rat at 1 mg/kg, iv measured after 24 hrs by HPLC-MS analysis; type: ADME, organism-based; details: in vivo
[21] = biological target: Cytochrome P450 2C9 (Homo sapiens, UniProt P11712); experiment: Inhibition of CYP2C9 (unknown origin); type: ADME
[22] = MRT in Beagle dog at 1 mg/kg, iv measured after 24 hrs by HPLC-MS analysis; type: ADME, organism-based, Canis lupus familiaris; details: in vivo
[23] = AUC in Beagle dog at 1 mg/kg, iv measured after 24 hrs by HPLC-MS analysis; type: ADME, organism-based, Canis lupus familiaris; details: in vivo
[24] = Unbound fraction in rat plasma at 1 mg/kg, iv measured after 24 hrs by HPLC-MS analysis; type: ADME, organism-based
[25] = Clearance in Beagle dog at 1 mg/kg, iv measured after 24 hrs by HPLC-MS analysis; type: ADME, organism-based, Canis lupus familiaris; details: in vivo
[26] = AUC in rat at 1 mg/kg, iv measured after 24 hrs by HPLC-MS analysis; type: ADME, organism-based; details: in vivo
[27] = biological target: Voltage-gated potassium channel, IKs; KCNQ1(Kv7.1)/KCNE1(MinK) (Homo sapiens, UniProt P15382+P51787); experiment: Inhibition of KCNQ1/KCNE1 (unknown origin); type: protein-complex assay
[28] = Volume of distribution at steady state in Beagle dog at 1 mg/kg, iv measured after 24 hrs by HPLC-MS analysis; type: ADME, organism-based, Canis lupus familiaris; details: in vivo, read-out: Vdss
[29] = biological target: Cytochrome P450 2D6 (Homo sapiens, UniProt P10635); experiment: Inhibition of CYP2D6 (unknown origin); type: ADME
[30] = Unbound fraction in Beagle dog plasma at 1 mg/kg, iv measured after 24 hrs by HPLC-MS analysis; type: ADME, organism-based, Canis lupus familiaris
[31] = MRT in rat at 1 mg/kg, iv measured after 24 hrs by HPLC-MS analysis; type: ADME, organism-based; details: in vivo
[32] = Toxicity in Beagle dog assessed as emesis at 1 mg/kg, iv measured after 24 hrs by HPLC-MS analysis; type: organism-based, Canis lupus familiaris; details: in vivo
[33] = Cmax in rat at 5 mg/kg, iv measured after 24 hrs by HPLC-MS analysis; type: ADME, organism-based; details: in vivo
[34] = Toxicity in Beagle dog assessed as increase in respiration at 1 mg/kg, iv measured after 24 hrs by HPLC-MS analysis; type: organism-based, Canis lupus familiaris; details: in vivo
[35] = Toxicity in Beagle dog assessed as appearance of watery eyes at 1 mg/kg, iv measured after 24 hrs by HPLC-MS analysis; type: organism-based, Canis lupus familiaris; details: in vivo
[36] = Toxicity in Beagle dog assessed as increase in histamine level in plasma at 1 mg/kg, iv measured upto 24 hrs by HPLC-MS analysis; type: organism-based, Canis lupus familiaris; details: in vivo
[37] = Toxicity in Beagle dog assessed as vocalization at 1 mg/kg, iv measured after 24 hrs by HPLC-MS analysis; type: organism-based, Canis lupus familiaris; details: in vivo
[38] = AUC in rat at 5 mg/kg, iv measured after 24 hrs by HPLC-MS analysis; type: ADME, organism-based; details: in vivo
[39] = MRT in rat at 5 mg/kg, iv measured after 24 hrs by HPLC-MS analysis; type: ADME, organism-based; details: in vivo
[40] = Toxicity in Beagle dog assessed as decrease in activity at 1 mg/kg, iv measured after 24 hrs by HPLC-MS analysis; type: organism-based, Canis lupus familiaris; details: in vivo
[41] = Clearance in rat at 5 mg/kg, iv measured after 24 hrs by HPLC-MS analysis; type: ADME, organism-based; details: in vivo
[42] = Volume of distribution at steady state in rat at 5 mg/kg, iv measured after 24 hrs by HPLC-MS analysis; type: ADME, organism-based; details: in vivo, read-out: Vdss
[43] = Unbound fraction in rat plasma at 5 mg/kg, iv measured after 24 hrs by HPLC-MS analysis; type: ADME, organism-based

Cytochrome P450 3A4, sequence (P08684 whole entry): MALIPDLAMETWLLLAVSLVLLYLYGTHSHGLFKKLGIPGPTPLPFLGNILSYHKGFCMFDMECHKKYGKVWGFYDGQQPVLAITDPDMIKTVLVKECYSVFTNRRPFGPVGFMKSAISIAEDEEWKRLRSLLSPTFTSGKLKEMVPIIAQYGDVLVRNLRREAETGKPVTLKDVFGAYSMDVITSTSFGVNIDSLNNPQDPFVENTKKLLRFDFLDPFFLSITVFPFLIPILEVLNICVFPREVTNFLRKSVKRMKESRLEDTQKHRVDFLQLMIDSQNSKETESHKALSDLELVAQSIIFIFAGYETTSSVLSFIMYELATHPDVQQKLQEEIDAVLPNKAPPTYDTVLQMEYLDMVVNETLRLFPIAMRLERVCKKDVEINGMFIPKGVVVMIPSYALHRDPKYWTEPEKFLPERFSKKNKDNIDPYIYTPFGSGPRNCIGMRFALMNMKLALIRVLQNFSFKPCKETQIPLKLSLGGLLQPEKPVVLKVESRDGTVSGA
Cytochrome P450 2C9, sequence (P11712 whole entry): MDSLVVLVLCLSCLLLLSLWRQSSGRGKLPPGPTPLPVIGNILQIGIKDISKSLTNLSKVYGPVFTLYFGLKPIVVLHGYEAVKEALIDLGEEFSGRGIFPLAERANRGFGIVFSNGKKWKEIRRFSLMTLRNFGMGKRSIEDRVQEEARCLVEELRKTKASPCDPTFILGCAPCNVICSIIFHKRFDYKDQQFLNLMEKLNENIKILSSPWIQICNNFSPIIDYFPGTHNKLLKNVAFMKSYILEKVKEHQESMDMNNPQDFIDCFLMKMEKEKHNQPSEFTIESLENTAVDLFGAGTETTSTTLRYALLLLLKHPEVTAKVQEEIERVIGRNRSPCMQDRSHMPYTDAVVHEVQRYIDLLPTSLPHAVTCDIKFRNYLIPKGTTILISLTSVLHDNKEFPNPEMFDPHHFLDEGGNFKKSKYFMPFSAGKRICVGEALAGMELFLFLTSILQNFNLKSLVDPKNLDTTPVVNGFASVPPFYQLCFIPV
Voltage-dependent L-type calcium channel subunit alpha-1C, sequence (Q13936 whole entry): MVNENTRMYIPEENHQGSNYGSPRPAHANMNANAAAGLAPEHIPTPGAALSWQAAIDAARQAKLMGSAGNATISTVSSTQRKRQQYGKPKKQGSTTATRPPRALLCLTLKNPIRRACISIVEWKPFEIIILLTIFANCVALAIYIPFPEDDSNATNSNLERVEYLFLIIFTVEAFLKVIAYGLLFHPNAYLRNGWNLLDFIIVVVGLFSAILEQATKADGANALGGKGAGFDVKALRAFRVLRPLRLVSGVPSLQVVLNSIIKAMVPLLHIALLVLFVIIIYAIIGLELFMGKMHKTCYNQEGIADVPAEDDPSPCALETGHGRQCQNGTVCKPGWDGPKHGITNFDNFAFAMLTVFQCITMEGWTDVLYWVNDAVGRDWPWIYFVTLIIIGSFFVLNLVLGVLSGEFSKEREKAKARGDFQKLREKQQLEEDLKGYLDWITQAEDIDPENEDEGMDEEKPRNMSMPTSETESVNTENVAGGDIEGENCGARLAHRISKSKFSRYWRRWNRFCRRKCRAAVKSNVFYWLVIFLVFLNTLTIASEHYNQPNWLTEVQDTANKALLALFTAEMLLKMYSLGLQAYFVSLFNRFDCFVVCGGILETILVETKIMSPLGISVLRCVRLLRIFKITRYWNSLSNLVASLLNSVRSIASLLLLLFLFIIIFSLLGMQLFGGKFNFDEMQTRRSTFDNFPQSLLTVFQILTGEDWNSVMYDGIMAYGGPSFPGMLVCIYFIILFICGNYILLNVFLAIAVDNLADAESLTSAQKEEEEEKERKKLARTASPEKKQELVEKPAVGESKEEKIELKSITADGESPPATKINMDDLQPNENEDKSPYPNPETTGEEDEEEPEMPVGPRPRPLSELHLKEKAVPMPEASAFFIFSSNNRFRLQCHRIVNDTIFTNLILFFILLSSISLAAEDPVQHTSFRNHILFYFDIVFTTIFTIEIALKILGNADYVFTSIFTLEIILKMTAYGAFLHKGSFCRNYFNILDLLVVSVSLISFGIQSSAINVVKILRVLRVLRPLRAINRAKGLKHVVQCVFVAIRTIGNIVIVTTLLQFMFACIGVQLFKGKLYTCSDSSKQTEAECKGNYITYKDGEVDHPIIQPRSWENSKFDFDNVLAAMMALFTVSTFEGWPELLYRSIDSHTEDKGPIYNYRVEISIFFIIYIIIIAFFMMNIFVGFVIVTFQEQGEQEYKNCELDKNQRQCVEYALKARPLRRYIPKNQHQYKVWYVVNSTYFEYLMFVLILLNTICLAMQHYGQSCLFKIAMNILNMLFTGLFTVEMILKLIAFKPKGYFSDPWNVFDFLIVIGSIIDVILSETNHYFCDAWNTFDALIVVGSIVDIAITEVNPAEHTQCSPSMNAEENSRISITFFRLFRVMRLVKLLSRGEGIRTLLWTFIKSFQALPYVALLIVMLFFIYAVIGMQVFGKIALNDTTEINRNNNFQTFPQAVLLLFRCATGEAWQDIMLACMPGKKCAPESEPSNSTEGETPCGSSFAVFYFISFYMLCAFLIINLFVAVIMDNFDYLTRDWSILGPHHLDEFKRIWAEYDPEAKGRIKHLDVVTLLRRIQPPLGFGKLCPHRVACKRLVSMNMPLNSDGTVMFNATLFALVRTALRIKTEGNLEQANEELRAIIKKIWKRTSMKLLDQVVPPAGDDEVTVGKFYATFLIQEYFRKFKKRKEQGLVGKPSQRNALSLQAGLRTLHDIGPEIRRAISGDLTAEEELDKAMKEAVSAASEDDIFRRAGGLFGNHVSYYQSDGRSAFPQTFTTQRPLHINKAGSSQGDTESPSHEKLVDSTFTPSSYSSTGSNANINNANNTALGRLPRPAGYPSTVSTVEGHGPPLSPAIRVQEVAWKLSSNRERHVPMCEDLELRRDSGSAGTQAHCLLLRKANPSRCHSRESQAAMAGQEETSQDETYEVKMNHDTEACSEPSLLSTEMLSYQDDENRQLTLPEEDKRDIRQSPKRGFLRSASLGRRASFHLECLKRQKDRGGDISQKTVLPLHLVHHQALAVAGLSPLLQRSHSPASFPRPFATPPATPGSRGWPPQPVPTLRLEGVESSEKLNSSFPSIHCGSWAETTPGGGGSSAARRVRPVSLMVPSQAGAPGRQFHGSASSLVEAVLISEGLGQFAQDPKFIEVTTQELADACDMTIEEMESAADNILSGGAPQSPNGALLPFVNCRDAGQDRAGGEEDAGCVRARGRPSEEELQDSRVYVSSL
Cytochrome P450 2D6, sequence (P10635 whole entry): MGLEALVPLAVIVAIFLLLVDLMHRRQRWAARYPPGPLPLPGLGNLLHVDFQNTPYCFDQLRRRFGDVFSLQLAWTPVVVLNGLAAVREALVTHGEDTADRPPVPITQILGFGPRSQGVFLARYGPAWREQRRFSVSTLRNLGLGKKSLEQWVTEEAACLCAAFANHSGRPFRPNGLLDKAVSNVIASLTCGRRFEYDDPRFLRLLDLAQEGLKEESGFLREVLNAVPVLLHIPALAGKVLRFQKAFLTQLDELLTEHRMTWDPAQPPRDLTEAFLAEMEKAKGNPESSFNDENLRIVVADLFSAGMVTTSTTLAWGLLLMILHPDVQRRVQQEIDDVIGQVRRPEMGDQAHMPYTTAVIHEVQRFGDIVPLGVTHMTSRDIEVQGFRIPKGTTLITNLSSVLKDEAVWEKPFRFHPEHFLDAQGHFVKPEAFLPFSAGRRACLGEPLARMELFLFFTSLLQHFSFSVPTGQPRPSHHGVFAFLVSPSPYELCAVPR
Voltage-gated inwardly rectifying potassium channel KCNH2, sequence (Q12809 whole entry): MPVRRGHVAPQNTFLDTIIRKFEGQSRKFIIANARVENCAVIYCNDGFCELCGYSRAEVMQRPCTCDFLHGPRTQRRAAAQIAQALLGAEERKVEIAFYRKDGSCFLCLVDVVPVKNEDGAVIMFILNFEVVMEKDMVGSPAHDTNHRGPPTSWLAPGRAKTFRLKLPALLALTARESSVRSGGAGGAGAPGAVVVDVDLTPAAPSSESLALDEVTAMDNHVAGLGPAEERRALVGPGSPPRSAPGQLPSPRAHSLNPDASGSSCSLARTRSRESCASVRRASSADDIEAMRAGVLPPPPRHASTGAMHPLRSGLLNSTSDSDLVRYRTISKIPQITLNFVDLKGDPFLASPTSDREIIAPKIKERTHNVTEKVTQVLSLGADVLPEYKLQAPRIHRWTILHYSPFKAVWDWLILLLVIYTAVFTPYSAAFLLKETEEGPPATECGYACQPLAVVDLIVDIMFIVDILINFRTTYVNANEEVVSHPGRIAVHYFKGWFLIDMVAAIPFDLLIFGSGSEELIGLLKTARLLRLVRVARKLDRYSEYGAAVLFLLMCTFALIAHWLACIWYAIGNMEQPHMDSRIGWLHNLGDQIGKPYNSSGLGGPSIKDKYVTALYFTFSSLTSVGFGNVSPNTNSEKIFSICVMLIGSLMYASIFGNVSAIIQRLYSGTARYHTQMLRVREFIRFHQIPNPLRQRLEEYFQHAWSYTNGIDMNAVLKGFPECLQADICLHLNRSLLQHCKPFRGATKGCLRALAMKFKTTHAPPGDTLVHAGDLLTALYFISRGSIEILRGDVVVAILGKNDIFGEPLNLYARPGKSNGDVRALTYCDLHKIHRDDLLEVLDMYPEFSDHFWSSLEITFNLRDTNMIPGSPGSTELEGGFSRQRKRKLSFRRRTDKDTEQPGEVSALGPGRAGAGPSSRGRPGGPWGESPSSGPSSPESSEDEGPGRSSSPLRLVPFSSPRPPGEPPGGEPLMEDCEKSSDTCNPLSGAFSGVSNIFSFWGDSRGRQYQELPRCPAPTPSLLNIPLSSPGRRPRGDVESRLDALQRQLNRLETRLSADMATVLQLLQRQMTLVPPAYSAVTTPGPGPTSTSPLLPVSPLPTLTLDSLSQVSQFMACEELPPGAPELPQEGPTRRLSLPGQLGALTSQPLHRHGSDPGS

Row | Structure (SMILES) | IC50 [1] [nM] | MITC95 [2] [µM] | IC50 [3] [nM] | MITC95 [4] [µM] | MITC95 [5] [µM] | Ratio [6] | MITC95 [7] [µM] | IC50 [8] [nM] | MITC95 [9] [µM] | IC50 [10] [nM] | Vd [11] [L/kg] | Cmax [12] [µM] | Activity [15] | clearance [18] [mL/min/kg] | Cmax [20] [µM] | MRT [22] [h] | AUC at 24 h [23] [µM·h] | fraction unbound at 24 h [24] | clearance [25] [mL/min/kg] | AUC at 24 h [26] [µM·h] | further results
1 | Nc1ccc(-c2ccc(C(F)(F)F)c(S(N)(=O)=O)c2-c2nn[nH]n2)cn1 | 6.9 | 0.2 | 1.3 | 1.56 | 4.8 | 128 | 0.4 | 2.7 | 200 | 3.1 |  |  |  |  |  |  |  |  |  |  | 
2 | Nc1nc2c(-c3ccc(CC4CCNCC4)c(S(N)(=O)=O)c3-c3nn[nH]n3)cccc2s1 | 19 | 0.8 | 2.2 | 1.6 | 1.6 | 11 | 3.1 | 0.7 | 18 | 2.1 |  |  |  |  |  |  |  |  |  |  | 
3 | Nc1nc2c(-c3ccc(C(F)(F)F)c(S(N)(=O)=O)c3-c3nn[nH]n3)cccc2s1 | 1 | 3.1 | 0.4 | 0.78 | 3.1 | 8 | 1.6 | 0.2 | 6.3 | 0.1 |  |  |  |  |  |  |  |  |  |  | 
4 | Nc1nc2cccc(-c3ccc(C(F)(F)F)c(S(N)(=O)=O)c3-c3nnn[nH]3)c2[nH]1 | 3.8 | 0.4 | 0.3 | 0.78 | 1.6 | 32 | 0.8 | 0.1 | 25 | 1.3 | 0.38 | 9 | Non-Toxic | 9.6 | 10.8 | 1.72 | 4.34 | 0.065 | 9.1 | 4.1 | IC50 [13]: > 30000 nM; IC50 [14]: > 50000 nM; IC50 [16]: > 30000 nM; IC50 [17]: > 30000 nM; IC50 [19]: > 50000 nM; IC50 [21]: > 50000 nM; IC50 [27]: > 30000 nM; Vd [28]: 0.94 L/kg; IC50 [29]: > 50000 nM; fraction unbound at 24 h [30]: 0.26; MRT [31]: 0.66 h
5 | NS(=O)(=O)c1c(C[C@H]2CC[C@H](N)CC2)ccc(-c2ccc(C3CNC3)cc2)c1-c1nn[nH]n1 | 43 | 0.8 | 1 | 1.6 | 1.6 | 11 | 3.1 | 4 | 18 |  |  | 9.3 |  |  |  |  |  |  |  |  | Activity [32]: Toxic; Cmax [33]: 84.3 µM; Activity [34]: Toxic; Activity [35]: Toxic; Activity [36]: Toxic; Activity [37]: Toxic; AUC at 24 h [38]: 83.7 µM·h; MRT [39]: 3.13 h; Activity [40]: Toxic; clearance [41]: 2.2 mL/min/kg; Vd [42]: 0.39 L/kg; fraction unbound at 24 h [43]: 0.42
6 | NS(=O)(=O)c1c(C(F)(F)F)ccc([C@H]2CC[C@H](N)CC2)c1-c1nnn[nH]1 | 39.4 | 0.4 | 0.7 | 0.78 | 0.8 | 256 | 0.8 | 13.5 | 200 |  | 0.45 | 15 | Non-Toxic | 8.7 | 12.7 | 2.03 | 16.7 | 0.78 | 2.6 | 5 | Vd [28]: 0.31 L/kg; fraction unbound at 24 h [30]: 0.76; MRT [31]: 0.87 h
